Experimental data as given in ChEMBL document CHEMBL3853288, “Biginkgosides A-I, Unexpected Minor Dimeric Flavonol Diglycosidic Truxinate and Truxillate Esters from Ginkgo biloba Leaves and Their Antineuroinflammatory and Neuroprotective Activities” (J Nat Prod, 2016).

Experiments:
[1] = Antineuroinflammatory activity in mouse BV2 cells assessed as inhibition of LPS-induced NO production incubated for 4 hrs followed by LPS stimulation for 24 hrs by Griess assay; assay type: functional, cell-based; conditions: BV-2
[2] = tested on: SH-SY5Y; test: Neuroprotection against amyloid beta (25 to 35)-induced cell toxicity in human SH-SY5Y cells assessed as cell viability at 10 uM incubated for 2 hrs followed by amyloid beta (25 to 35) treatment for 24 hrs by MTT assay (reference value: 62.4 +/- 3.5%); assay type: functional; conditions: read-out: Activity
[3] = Cytotoxicity against LPS-stimulated mouse BV2 cells assessed as cell viability at 20 uM incubated for 4 hrs followed by LPS stimulation for 24 hrs by MTT assay; assay type: toxicity, BV-2; conditions: read-out: Activity
[4] = tested on: SH-SY5Y; test: Neuroprotection against amyloid beta (25 to 35)-induced cell toxicity in human SH-SY5Y cells assessed as cell viability at 1 uM incubated for 2 hrs followed by amyloid beta (25 to 35) treatment for 24 hrs by MTT assay (reference value: 62.4 +/- 3.5%); assay type: functional; conditions: read-out: Activity

Row | IC50 [1] [µM] | SMILES | further results
1 | > 100 | C[C@@H]1O[C@@H](Oc2c(-c3ccc(O)cc3)oc3cc(O)cc(O)c3c2=O)[C@H](O[C@@H]2O[C@H](COC(=O)[C@@H]3[C@H](C(=O)OC[C@H]4O[C@@H](O[C@H]5[C@H](Oc6c(-c7ccc(O)cc7)oc7cc(O)cc(O)c7c6=O)O[C@@H](C)[C@H](O)[C@H]5O)[C@H](O)[C@@H](O)[C@@H]4O)[C@@H](c4ccc(O)cc4)[C@@H]3c3ccc(O)cc3)[C@@H](O)[C@H](O)[C@H]2O)[C@H](O)[C@H]1O | 
2 | 17.2 | C[C@@H]1O[C@@H](Oc2c(-c3ccc(O)cc3)oc3cc(O)cc(O)c3c2=O)[C@H](O[C@@H]2O[C@H](COC(=O)[C@H]3[C@H](c4ccc(O)cc4)[C@@H](C(=O)OC[C@H]4O[C@@H](O[C@H]5[C@H](Oc6c(-c7ccc(O)cc7)oc7cc(O)cc(O)c7c6=O)O[C@@H](C)[C@H](O)[C@H]5O)[C@H](O)[C@@H](O)[C@@H]4O)[C@@H]3c3ccc(O)cc3)[C@@H](O)[C@H](O)[C@H]2O)[C@H](O)[C@H]1O | viability at 24 h, 20 µM [3]: 97.7%
3 | > 100 | C[C@@H]1O[C@@H](Oc2c(-c3ccc(O)c(O)c3)oc3cc(O)cc(O)c3c2=O)[C@H](O[C@@H]2O[C@H](COC(=O)[C@@H]3[C@H](C(=O)OC[C@H]4O[C@@H](O[C@H]5[C@H](Oc6c(-c7ccc(O)c(O)c7)oc7cc(O)cc(O)c7c6=O)O[C@@H](C)[C@H](O)[C@H]5O)[C@H](O)[C@@H](O)[C@@H]4O)[C@@H](c4ccc(O)cc4)[C@H]3c3ccc(O)cc3)[C@@H](O)[C@H](O)[C@H]2O)[C@H](O)[C@H]1O | 
4 | > 100 | C[C@@H]1O[C@@H](Oc2c(-c3ccc(O)cc3)oc3cc(O)cc(O)c3c2=O)[C@H](O[C@@H]2O[C@H](COC(=O)[C@@H]3[C@@H](C(=O)OC[C@H]4O[C@@H](O[C@H]5[C@H](Oc6c(-c7ccc(O)cc7)oc7cc(O)cc(O)c7c6=O)O[C@@H](C)[C@H](O)[C@H]5O)[C@H](O)[C@@H](O)[C@@H]4O)[C@@H](c4ccc(O)cc4)[C@@H]3c3ccc(O)cc3)[C@@H](O)[C@H](O)[C@H]2O)[C@H](O)[C@H]1O | 
5 | > 100 | C[C@@H]1O[C@@H](Oc2c(-c3ccc(O)cc3)oc3cc(O)cc(O)c3c2=O)[C@H](O[C@@H]2O[C@H](COC(=O)[C@H]3[C@H](C(=O)OC[C@H]4O[C@@H](O[C@H]5[C@H](Oc6c(-c7ccc(O)c(O)c7)oc7cc(O)cc(O)c7c6=O)O[C@@H](C)[C@H](O)[C@H]5O)[C@H](O)[C@@H](O)[C@@H]4O)[C@@H](c4ccc(O)cc4)[C@@H]3c3ccc(O)cc3)[C@@H](O)[C@H](O)[C@H]2O)[C@H](O)[C@H]1O | viability at 1 µM [4]: 96.7%
6 | > 100 | C[C@@H]1O[C@@H](Oc2c(-c3ccc(O)cc3)oc3cc(O)cc(O)c3c2=O)[C@H](O[C@@H]2O[C@H](COC(=O)[C@H]3[C@H](C(=O)OC[C@H]4O[C@@H](O[C@H]5[C@H](Oc6c(-c7ccc(O)cc7)oc7cc(O)cc(O)c7c6=O)O[C@@H](C)[C@H](O)[C@H]5O)[C@H](O)[C@@H](O)[C@@H]4O)[C@@H](c4ccc(O)cc4)[C@@H]3c3ccc(O)cc3)[C@@H](O)[C@H](O)[C@H]2O)[C@H](O)[C@H]1O | 

Second part, the molecule before the results:

Row | SMILES | IC50 [1] [µM] | further results
7 | O=C(O[C@@H]1Cc2c(O)cc(O)cc2O[C@@H]1c1cc(O)c(O)c(O)c1)c1cc(O)c(O)c(O)c1 [EPIGALOCATECHIN GALLATE] |  | viability at 10 µM [2]: 99%
8 | CNC(=N)NCCC[C@H](N)C(=O)O [TILARGININE] |  | viability at 24 h, 20 µM [3]: 98.5%
9 | C[C@@H]1O[C@@H](Oc2c(-c3ccc(O)c(O)c3)oc3cc(O)cc(O)c3c2=O)[C@H](O[C@@H]2O[C@H](COC(=O)[C@H]3[C@H](c4ccc(O)cc4)[C@@H](C(=O)OC[C@H]4O[C@@H](O[C@H]5[C@H](Oc6c(-c7ccc(O)c(O)c7)oc7cc(O)cc(O)c7c6=O)O[C@@H](C)[C@H](O)[C@H]5O)[C@H](O)[C@@H](O)[C@@H]4O)[C@@H]3c3ccc(O)cc3)[C@@H](O)[C@H](O)[C@H]2O)[C@H](O)[C@H]1O | > 100 | 
10 | C[C@@H]1O[C@@H](Oc2c(-c3ccc(O)c(O)c3)oc3cc(O)cc(O)c3c2=O)[C@H](O[C@@H]2O[C@H](COC(=O)[C@H]3[C@H](C(=O)OC[C@H]4O[C@@H](O[C@H]5[C@H](Oc6c(-c7ccc(O)c(O)c7)oc7cc(O)cc(O)c7c6=O)O[C@@H](C)[C@H](O)[C@H]5O)[C@H](O)[C@@H](O)[C@@H]4O)[C@@H](c4ccc(O)cc4)[C@@H]3c3ccc(O)cc3)[C@@H](O)[C@H](O)[C@H]2O)[C@H](O)[C@H]1O | 2.91 | viability at 24 h, 20 µM [3]: 99%
11 | C[C@@H]1O[C@@H](Oc2c(-c3ccc(O)cc3)oc3cc(O)cc(O)c3c2=O)[C@H](O[C@@H]2O[C@H](COC(=O)[C@@H]3[C@H](C(=O)OC[C@H]4O[C@@H](O[C@H]5[C@H](Oc6c(-c7ccc(O)cc7)oc7cc(O)cc(O)c7c6=O)O[C@@H](C)[C@H](O)[C@H]5O)[C@H](O)[C@@H](O)[C@@H]4O)[C@@H](c4ccc(O)cc4)[C@H]3c3ccc(O)cc3)[C@@H](O)[C@H](O)[C@H]2O)[C@H](O)[C@H]1O | > 100 | 
